Test results published in paper PMC9697349, “Mouse Pharmacokinetics and In Vitro Metabolism of SH-11037 and SH-11008, Synthetic Homoisoflavonoids for Retinal Neovascularization” (Pharmaceutics, 2022).

Legend:
[1] = set-up: method as in PMID 30713251; details: cited from earlier work
[2] = tested on: hydrolysis of SH-11037 in mouse plasma; format: in vitro ADME; details: inhibitor 1 mM; SH-11037 1 µM, mouse plasma, 1 min, 37 °C
Description: (§1) Chemical inhibition assay was conducted in mouse, dog, and human plasma and mouse eye homogenate to identify the enzyme(s) involved in the hydrolysis of SH-11037. BW284c51 [16], DTNB [17], EPZ [18], and BNPP [19, 20] were used as selective inhibitors of acetylcholinesterase (AChE), paraoxonase 1 (PON1), butyrylcholinesterase (BchE), and carboxylesterase (CES), respectively. Mouse eyes (male ICR mouse, 8 weeks old) taken immediately after CO2 asphyxiation were homogenized by an electric tissue homogenizer (Tissue Master-125, Omni International, Kennesaw, GA, USA) in an equal amount of 0.1 M potassium phosphate buffer (pH 7.4) on ice. The resulting homogenate was then centrifuged at 3000× g for 20 min. The supernatant was stored at −80 °C until the experiment. DMSO stock solutions of the inhibitors (0.4, 4 and 40 mM) were mixed with plasma diluted 3-fold with 0.1 M phosphate buffer (pH 7.4) to a final volume of 160 μL and final inhibitor concentrations of 0.01, 0.1, and 1 mM. The supernatant of mouse eye homogenate was treated similarly with only BNPP as the inhibitor and a single inhibitor concentration of 1 mM. The resulting pre-incubation solutions were then incubated for 2 h at 37 °C in a shaking water bath. SH-11037 (40 μM) in 50 vol% aqueous CH3CN was mixed with the pre-incubation solutions to a final volume of 160 μL and a final concentration of 1 μM. The resulting solutions were then incubated at 37 °C in a shaking water bath. The incubations were terminated at selected times by adding 160 µL of ice-cold CH3CN containing glipizide (500 ng/mL) as the IS. The resulting mixture was vortexed, sonicated, and centrifuged at 3000× g for 20 min. Aliquots of the supernatant were subjected to LC-MS/MS analysis described below in Section 2.6.2.
(§2) The LC-MS/MS system consisted of Agilent 1290 Infinity HPLC system and Agilent 6530 Accurate-Mass Quadrupole Time-of-Flight (Q-TOF) mass spectrometer equipped with dual AJS ESI ion source (Agilent Technologies Korea, Seoul, Korea). Chromatographic separation was performed on an Agilent Eclipse Plus C18 column (2.1 × 100 mm, 3.5 μm) with a Phenomenex Security Guard C18 guard column (4 × 20 mm) maintained at 40 °C. The mobile phase consisted of 0.1% formic acid in deionized water (A) and 0.1% formic acid in CH3CN (B): 0~2 min 5% B, 2~7 min to 95% B, and 7~10 min 95% B. Total run time including a 5 min equilibration time was 15 min. The flow rate was 0.4 mL/min. The injection volume was 5 µL. The mass spectrometer was operated in a positive Auto MS/MS scan mode with a full scan mass range of m/z 100–1000, fragmentor voltage 150 V, and CE 30 eV, selecting the two most intense precursor ions for collision-induced dissociation. Putative metabolites were identified using Agilent Mass Hunter Metabolite ID software (ver.B.04.00) followed by manual interpretation of the spectral data. Chromatograms and mass spectra were extracted using Agilent Mass Hunter Qualitative Analysis software (ver. B.05.00).

[3] = format: in vitro ADME; details: BNPP 1 mM, 2 h preincubation; SH-11037 1 µM, mouse eye homogenate, 1 min
Description: as §1, §2

Structure (SMILES) | oral absorption [1] | systemic clearance (CL) [1] | SH-11008 Formation (%) in presence of inhibitor [2] | effect of inhibitor on SH-11037 hydrolysis [3]
COc1ccc(CC2COc3cc(O)c(OC)c(O)c3C2=O)cc1O (stereo not shown) [cremastranone, Cremastranone] | poor | high |  | 
O=[N+]([O-])c1ccc(OP(=O)(O)Oc2ccc([N+](=O)[O-])cc2)cc1 [BNPP, bis(4-nitrophenyl)phosphate, reference compound] |  |  | completely inhibited | inhibited the hydrolysis nearly completely
